The text below walks through data of US20110207655A1, “CYCLIC DEPSIPEPTIDE COMPOUND AND USE THEREOF” (Astellas Pharma Inc., priority 2008, published 2011).

Structures are written as SMILES. Starred links: 1 amine or outer side, 2 acyl side, 3 side chain; linkers in the order of their positions; H or OH if unused. Positions of bridges follow the written chain, without caps; N, C: chain ends. Non-standard residues stand in square brackets, D forms with d. Residues, ends and D or L forms follow the SMILES beside them. Leu(3R-O(AcLeu(3R-OH))) = CC(=O)N[C@H](C(=O)O[C@H](C(C)C)[C@H](N)C(=O)O)[C@H](O)C(C)C; X1 = CO[C@H](C)C(C(=O)[*:2])N(C)[*:1]; dPhLac = O=C(O)[C@H](O)Cc1ccccc1; NMeA = CN[C@@H](C)C(=O)O; NMeDha = C=C(NC)C(=O)O

Data set [1] concerns human platelet aggregation caused by ADP. The note with it: Patent Citation 1, Non-Patent Citation 1; cited from earlier work.
For data set [2], the system named is ADP receptors (P2Y1, P2Y2). Particulars: in-vitro tests, Non-Patent Citation 3; cited from earlier work.
The subject of data set [3] is Gq/11. The experiment in a line: Inhibitory action on Gq/11: LTD4-induced cellular Ca2+ change in CHO cells stably expressing CysLTR2 (FLIPR). In kind it is cell-based. Particulars: read-out: Gq/11 inhibitory activities (IC50 values), 10 nM LTD4, maximum Fluo-4 fluorescence intensity. How it is done:
The test was carried out according to the method of Non-Patent Citation 3, using a leukotriene receptor CysLTR2 (cysteinyl leukotriene receptor 2), which is known to activate Gq/11. CHO cells stably expressing CysLTR2 were seeded on a 96-well black/clear bottom plate (manufactured by Becton, Dickinson and Company) at 20,000 cells per well, and after 24 hours of seeding, the medium was discarded. Then, Hanks BSS (GIBCO Inc.) including 2 μM Fluo-4, AM (manufactured by Molecular Probe Co.), 0.004% pluronic acid, 1% FBS, 20 mM HEPES, and 2.5 mM probenecid was added thereto at 100 μL per well, followed by incubation at 37° C. for 1 hour. After incubation, the resultant was washed four times with Hanks BSS including 20 mM HEPES, and Hanks BSS including 20 mm HEPES per well was added thereto 100 μL per well. In addition, 50 μL of a test compound that had been diluted with Hanks BSS including 20 mM HEPES to a final concentration from 1×10^−10 M to 1×10^−5 M was added thereto, followed by being left to stand at room temperature for 30 minutes. The change of cellular Ca^2+ concentration after addition of leukotriene D4 (LTD4, manufactured by Cayman Co.), which is a CysLTR2 ligand, was measured over time using an FLIPR (Molecular Device Corp.). 50 μL it of leukotriene D4 that had been diluted with Hanks BSS including 20 mM HEPES to a final concentration of 10 nM at 10 seconds after the initiation of measurement was added thereto, fluorescence intensities were measured every second for 50 seconds and every sixth second for 2 minutes, and a maximum fluorescence intensity during a measurement time of 3 minutes was observed. By plotting the concentrations and the fluorescence intensities of the test compounds, the IC50 values were calculated, which were taken as Gq/11 inhibitory activities.

Data set [4] concerns blood pressure. The note with it: intravenous 30 μg/kg, Non-Patent Citation 4; cited from earlier work.
The test system of data set [5] is muscarinic receptors (M1). Particulars: in-vitro tests, Non-Patent Citation 3; cited from earlier work.
Data set [6] deals with LTD4-induced airway contraction. Description: Action on the LTD4-induced airway contraction response by intratracheal administration. The note with it: guinea pigs. In kind it is in vivo, Hartley male guinea pigs. As to the method:
Hartley male guinea pigs (Japan SLC, Inc.) were used in experiments. Urethane (1.2 g/kg) was administered intraperitoneally to the guinea pigs for anesthesia. Using needles (30 G), the test compounds (0.3, 1, and 3 μg/kg) at a volume of 0.5 mL/kg or physiological saline was administered by intratracheal injection (3 animals in each group). Cannulation for intravenous administration was carried out in the external jugular vein of the guinea pigs. A tracheostomy cannula was inserted through an incision in the trachea and mechanical ventilation (10 mL/kg, 60 times/min) was carried out using a mechanical ventilator (MODEL683, HARVARD). The mechanical ventilator circuit was connected with a pressure transducer (TP-400T, Nihon Kohden Corporation) and the change in airway pressure was measured. The airway pressure signal was amplified with a strain pressure amplifier (AP-601G, Nihon Kohden Corporation) and recorded on chart paper by a thermal pen recorder (LINEARCORDER F WR3701, Graphtec). The body temperature of the guinea pigs was maintained at 37° C. using a body temperature-maintaining device (BWT-100, Bio Research Center). At 30 minutes after injection by intratracheal administration of the test compound, a solution of LTD4 in physiological saline (0.3 μg/kg) was administered intravenously to induce the airway contraction response.

The test system of data set [7] is G15 and G16. The note with it: Non-Patent Citation 3; cited from earlier work.
For data set [8], the system named is carotid artery pressure. The experiment in a line: Action on the carotid pressure by intratracheal administration. Format: in vivo, SD male rats. Particulars: rats. How it is done: SD male rats (Charles River Laboratories Japan, Inc.) were used in experiments. Urethane (1.2 g/kg) was administered intraperitoneally to the rats for anesthesia. Cannulation for […] was carried out in the carotid artery and a pressure transducer (TP-400T, Nihon Kohden Corporation) was connected. The cannula for measuring blood pressure and a pressure transducer were filled with 5% heparin physiological saline. The pressure signal was amplified with a strain pressure amplifier (AP-601G, Nihon Kohden Corporation) and recorded on chart paper by a thermal pen recorder (WT-685G, Nihon Kohden Corporation). The body temperature of the rats was maintained at 37° C. using a body temperature-maintaining device (BWT-100, Bio Research Center). The trachea was exposed, and using needles (27 G), the test compounds (30 or 100 μg/kg) at a volume of 0.5 mL/kg or physiological saline was administered by direct intratracheal injection. For the group administered with 30 μg/kg, 5 animals were used, for the group administered with 100 μg/kg, 1 animal was used, and for the group administered with physiological saline, 3 animals were used. For 30 minutes after intratracheal administration, a mean blood pressure was measured.

Data set [9] has as its system Gq and G11. Particulars: Non-Patent Citation 3; cited from earlier work.
The mark [10] stands for this setting: intratracheal 100 μg/kg, 1 animal.

`C=C1C(=O)N[C@@H](C)C(=O)N(C)[C@@H](C)C(=O)N[C@@H]([C@H](OC(=O)[C@@H](NC(C)=O)[C@H](O)C(C)C)C(C)C)C(=O)N(C)C([C@@H](C)OC)C(=O)O[C@H](C)[C@H](NC(C)=O)C(=O)O[C@H](Cc2ccccc2)C(=O)N1C` (stereo partly drawn) [Ref 1] (Ac-T[dPhLac][NMeDha]A[NMeA][Leu(3R-O(AcLeu(3R-OH)))][X1]; ester 1-C): the “human platelet aggregation caused by ADP” value in data set [1] is “inhibits”. Also, in [2], the “reactions of ADP receptors (P2Y1, P2Y2)” value is on record as “inhibits”. Moreover, the IC50 in [3] stood at 66 nM. Moreover, the hypotensive action entry in data set [4] is reported as “hypotensive action”. Besides, in data set [5], the “reactions of muscarinic receptors (M1)” value was “inhibits”. For the same molecule, the median effective dose (ED50) (commonly the dose at which the effect has come halfway, by size or by number of responders) in data set [6] (Cavia porcellus, iv, intratracheal, 30 minutes before LTD4 0.3 μg/kg i.v., read-out: ED50 value of inhibition of LTD4-induced airway contraction) was 1.1 µg/kg. Moreover, in [6] (intratracheal administration), the “LTD4-induced airway contraction response” value is listed as “inhibited”. Also, the “inhibition of G15 and G16” value in data set [7] was “does not inhibit”. Besides, the “amount having no action on the carotid artery pressure” value in data set [8] (intratracheal) is given as “at least 30 μg/kg”. In [8] (intratracheal 30 μg/kg), the “Reduction in blood pressure After 10 min” value is given as 7±5.2 mmHg, the “Reduction in blood pressure Max in 30 min” value was 22±3.3 mmHg and the “reduction in blood pressure compared with physiological saline group” value was “no significant difference”. Further, in [8] (intratracheal 100 μg/kg), the “reduction in blood pressure (in words)” value is listed as “remarkable reduction in blood pressure”. In addition, in [8] (setting [10]), the “Reduction in blood pressure After 10 min” value is on record as 65 mmHg and the “Reduction in blood pressure Max in 30 min” value was 95 mmHg. For the same molecule, the “gap between maximum amount having no action on carotid artery pressure and ED50 of inhibitory action on airway contraction” value in data set [8] (intratracheal, 30 μg/kg vs 0.73 μg/kg) is listed as “at least 40 times”. For the same molecule, the “inhibition of Gq and G11” value in data set [9] is recorded as “strongly inhibits”.
